Measured values reported in ChEMBL document CHEMBL3098055 (Bioorg Med Chem Lett, 2014).
Bridge positions count the residues as written; N and C are the ends. Square brackets hold non-standard residues; d marks the D form. Peptide text beside a SMILES is read from it. AllylGly = C=CC[C@H](N)C(=O)O

Key:
Type in all cases: cell-based
[1] = molecular target: Somatostatin receptor type 5 (Homo sapiens, UniProt P35346); experiment: Displacement of [125I]-somatostatin from human SSTR5 expressed in CHO-K1 cells
[2] = molecular target: Somatostatin receptor type 4 (Homo sapiens, UniProt P31391); experiment: Displacement of [125I]-somatostatin from human SSTR4 expressed in CHO-K1 cells
[3] = molecular target: Somatostatin receptor type 3 (Homo sapiens, UniProt P32745); experiment: Displacement of [125I]-somatostatin from human SSTR3 expressed in CHO-K1 cells
[4] = molecular target: Somatostatin receptor type 2 (Homo sapiens, UniProt P30874); experiment: Displacement of [125I]-somatostatin from human SSTR2 expressed in CHO-K1 cells
[5] = molecular target: Somatostatin receptor type 1 (Homo sapiens, UniProt P30872); experiment: Displacement of [125I]-somatostatin from human SSTR1 expressed in CHO-K1 cells
Chain of Somatostatin receptor type 1 (P30872 whole entry): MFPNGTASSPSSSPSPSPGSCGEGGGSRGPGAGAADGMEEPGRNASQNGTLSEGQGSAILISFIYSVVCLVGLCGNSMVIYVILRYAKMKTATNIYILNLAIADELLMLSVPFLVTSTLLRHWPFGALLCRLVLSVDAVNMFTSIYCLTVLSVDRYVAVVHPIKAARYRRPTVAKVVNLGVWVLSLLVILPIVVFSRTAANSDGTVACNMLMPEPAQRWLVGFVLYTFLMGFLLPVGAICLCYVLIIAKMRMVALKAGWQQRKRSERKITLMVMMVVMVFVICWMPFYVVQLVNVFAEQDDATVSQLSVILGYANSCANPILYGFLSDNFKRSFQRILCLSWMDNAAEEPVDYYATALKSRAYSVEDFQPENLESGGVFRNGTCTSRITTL

Chain of Somatostatin receptor type 3 (P32745 whole entry): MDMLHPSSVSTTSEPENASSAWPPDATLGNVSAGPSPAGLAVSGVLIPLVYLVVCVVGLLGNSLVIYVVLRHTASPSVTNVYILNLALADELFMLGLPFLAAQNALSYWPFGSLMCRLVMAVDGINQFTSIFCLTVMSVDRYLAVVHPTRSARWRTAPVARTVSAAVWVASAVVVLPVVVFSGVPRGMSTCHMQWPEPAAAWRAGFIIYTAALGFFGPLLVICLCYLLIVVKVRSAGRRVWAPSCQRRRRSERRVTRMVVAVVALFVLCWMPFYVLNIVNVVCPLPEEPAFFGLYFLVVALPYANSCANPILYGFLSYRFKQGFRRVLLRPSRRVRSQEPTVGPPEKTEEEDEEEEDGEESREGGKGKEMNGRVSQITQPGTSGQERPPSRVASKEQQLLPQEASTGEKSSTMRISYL
Chain of Somatostatin receptor type 5 (P35346 whole entry): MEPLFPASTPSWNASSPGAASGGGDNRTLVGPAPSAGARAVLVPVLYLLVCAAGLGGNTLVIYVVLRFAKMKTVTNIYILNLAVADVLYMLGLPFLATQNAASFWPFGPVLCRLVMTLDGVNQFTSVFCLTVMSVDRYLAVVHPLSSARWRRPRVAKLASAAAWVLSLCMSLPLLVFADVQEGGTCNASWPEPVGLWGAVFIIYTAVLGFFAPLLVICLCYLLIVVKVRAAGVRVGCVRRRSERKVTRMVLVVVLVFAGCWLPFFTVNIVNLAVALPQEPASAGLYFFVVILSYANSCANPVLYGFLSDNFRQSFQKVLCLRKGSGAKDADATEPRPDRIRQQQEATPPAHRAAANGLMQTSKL
Chain of Somatostatin receptor type 4 (P31391 whole entry): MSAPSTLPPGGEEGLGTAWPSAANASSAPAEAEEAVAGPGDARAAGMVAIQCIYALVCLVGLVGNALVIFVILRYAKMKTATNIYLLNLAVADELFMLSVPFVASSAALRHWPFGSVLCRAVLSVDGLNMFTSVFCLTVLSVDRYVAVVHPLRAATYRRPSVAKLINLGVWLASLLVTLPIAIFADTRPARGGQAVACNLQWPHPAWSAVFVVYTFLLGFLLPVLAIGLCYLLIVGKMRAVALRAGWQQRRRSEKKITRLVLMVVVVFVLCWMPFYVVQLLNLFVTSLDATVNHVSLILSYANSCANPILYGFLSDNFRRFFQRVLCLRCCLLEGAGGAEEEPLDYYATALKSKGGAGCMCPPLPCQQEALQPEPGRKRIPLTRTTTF
Chain of Somatostatin receptor type 2 (P30874 whole entry): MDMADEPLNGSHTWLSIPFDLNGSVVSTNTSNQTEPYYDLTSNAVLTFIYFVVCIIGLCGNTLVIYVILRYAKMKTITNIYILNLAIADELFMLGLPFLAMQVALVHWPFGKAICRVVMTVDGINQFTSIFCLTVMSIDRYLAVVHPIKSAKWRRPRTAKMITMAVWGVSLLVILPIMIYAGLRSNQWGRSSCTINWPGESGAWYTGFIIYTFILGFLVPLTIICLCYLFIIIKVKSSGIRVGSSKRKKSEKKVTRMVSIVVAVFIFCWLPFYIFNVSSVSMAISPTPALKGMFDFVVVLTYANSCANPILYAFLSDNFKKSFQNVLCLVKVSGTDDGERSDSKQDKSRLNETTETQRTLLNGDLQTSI

Ki [1]: 0.2 nM | Ki [2]: 1.77 nM | Ki [3]: 4.24 nM | Ki [4]: 0.41 nM | Ki [5]: 0.31 nM
Compound: C[C@H](N)C(=O)NCC(=O)N[C@H]1C/C=C\C[C@@H](C(N)=O)NC(=O)[C@H](CO)NC(=O)[C@H]([C@@H](C)O)NC(=O)[C@H](Cc2ccccc2)NC(=O)[C@H]([C@@H](C)O)NC(=O)[C@H](CCCCN)NC(=O)[C@H](Cc2c[nH]c3ccccc23)NC(=O)[C@H](Cc2ccccc2)NC(=O)[C@H](Cc2ccccc2)NC(=O)[C@H](CC(N)=O)NC(=O)[C@H](CCCCN)NC1=O (H-AG[AllylGly]KNFFWKTFTS[AllylGly]-NH2; staple (Z) 3-14)
